Test results reported in patent US9561228B2 (Celgene Avilomics Research, Inc., priority 2013, dated 2017).
Read-outs that look alike come from different tables or passages of the source.

Key:
[1] = tested on: ERK1/2 phosphorylation of p90RSK in A375 cells; test: Detection of total and phosphor-RSK by MSD ELISA (A375); assay type: cell-based; settings: Homo sapiens, A-375, read-out: ERK1/ERK2 PRSK A375 EC50
Protocol: Detection of Total and Phosphor-RSK by MSD ELISA (A375)
(§1) The protocol below describes an assay to measure the kinase activity of ERK1/2 to phosphorylate a substrate, p90RSK, in the presence or absence of a test compound.
A375 cells were grown in DMEM/10% FBS. Twenty four hours prior to the assay, 50,000 cells per well were plated in a 96 well flat bottom plate. Once cells attached to the plate, the medium was replaced with 100 ul of DMEM/0.1% FBS. Cells were cultured overnight in an incubator at 37° C.
Compound stock solutions of 10 mM in DMSO were prepared. 1000× dilutions were then prepared in DMSO. 1 uL of DMSO solution was then transferred to 1 ml DMEM/0.1% FBS in a deep well plate. Cell plate media was discarded, followed by addition of 100 uL of the compound-containing media. The preparation was incubated at 37° C. for 2 hrs.
Cell lysates were prepared as described below.
pRSK or Total RSK MSD Assay
(§2) MSD plates: Blank MSD plates were coated with 30 uL capture antibody (BD 610226) at a final concentration of 1 ug/mL in PBS. Both pRSK and total RSK MSD assays used the same capture antibody at the same concentration. Antibody stock concentration was 250 ug/mL. Once antibody solution was added to the MSD plate, the sides were tapped to be certain it was coated completely (visual inspection). It was then covered and placed at 4° C. overnight on a level surface.
(§3) Block MSD Plate: The coating antibody was removed and the plate was washed on a plate washer in MSD wash buffer. The last bit of wash solution was tapped out and 150 uL/well of 3% BSA in MSD wash buffer was added in. The preparation was placed on a shaker at room temperature for at least an hour.
Add samples: Media was removed from compound-treated cells and replaced with 55 uL/well MSD cell lysis buffer containing protease and phosphotase I & II inhibitors. The preparation was incubated on a shaker in a cold room for 30-45 min. The blocked MSD plate was washed a on plate washer, tapping out the last bit of wash solution, followed by addition of 50 uL (of the 55 ul) cell lysate in a well-well transfer. The preparation was covered and incubated on a shaker at room temp for 2 hours. The lysate was removed, washed on a plate washer 3 times, and the last bit of wash buffer was tapped out and replace with 25 uL/well detection antibody (described below).
For pRSK detection, a pRSK antibody stock of 21 ug/mL was prepared as follows: 1 ug/mL pRSK Ser380 antibody (Cell Signaling Technology, Cat. #9335)+1:750 anti-rabbit SulfoTag (Mesoscale Discovery, Cat. # R32AB-1) in 1% BSA in MSD wash buffer.
(§4) For total RSK detection, a total RSK antibody stock of 200 ug/mL was prepared as follows: 1 ug/mL total RSK (Santa Cruz sc-231G) antibody+1:750 anti-goat SulfoTag (from MSD, R32AG-1) in 1% BSA in MSD wash buffer.
The plate was incubated for 1 hr at room temperature on a shaker, followed by three washings. The last bit of wash buffer was tapped out. 150 uL/well 1×MSD Read buffer was added and the plate was then analyzed.

MEK1 activated ERK1 = target: T1, MEK1 activated ERK1 (Homo sapiens, UniProt P27361); test: Omnia continuous-read kinase assay for potency against MEK1 activated ERK1; assay type: biochemical
T1 construct: purchased Millipore (Billerica, Mass.) 14-439-K
T1 sequence (P27361 whole entry): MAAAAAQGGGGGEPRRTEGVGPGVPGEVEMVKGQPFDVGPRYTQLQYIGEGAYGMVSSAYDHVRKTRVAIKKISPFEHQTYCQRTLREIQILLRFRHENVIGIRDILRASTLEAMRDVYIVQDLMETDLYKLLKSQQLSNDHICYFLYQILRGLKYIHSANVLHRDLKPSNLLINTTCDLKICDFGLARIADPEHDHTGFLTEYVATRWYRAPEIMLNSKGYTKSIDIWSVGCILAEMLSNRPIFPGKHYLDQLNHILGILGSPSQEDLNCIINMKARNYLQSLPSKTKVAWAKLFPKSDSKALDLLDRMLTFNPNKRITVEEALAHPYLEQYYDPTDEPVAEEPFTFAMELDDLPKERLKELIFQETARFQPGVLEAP
Procedure, shortened: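 Apparent IC50 came from initial reaction slopes (RFU vs time) plotted against log inhibitor with a variable-slope fit. Reactions were started with ERK1 (4 nM final) added to 50 μM ATP, roughly at its appKM, and 10 μM Sox-conjugated ST17 peptide in 20 mM Tris pH 7.5, 5 mM MgCl2. Fluorescence was monitored every 71 seconds.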

[2] = tested on: ERK1/2 phosphorylation of p90RSK in HCT116 cells; test: Detection of total and phospho-RSK by MSD ELISA (HCT116); assay type: cell-based; settings: Homo sapiens, HCT-116, read-out: ERK1/ERK2 PRSK HCT116 EC50
Protocol: Detection of Total and Phospho-RSK by MSD ELISA (HCT116)
as §1
HCT116 cells were grown in RPMI/10% FBS. Prior to the assay, 50,000 cells per well were plated in a 96 well flat bottom plate. Cells were cultured overnight in an incubator at 37° C.
Compound stocks were 10 mM in DMSO. A 1000× dilution was made in DMSO. 1 uL of the DMSO solution was transferred to 1 ml RPMI/10% FBS in a deep well plate. Media in the cell plate was discarded, and 100 uL of the compound-containing media was added. The preparation was incubated at 37° C. for 2 hrs.
Preparation of cell lysates are described below.
pRSK or total RSK MSD Assay
as §2, with “to” for “to the”
as §3, with “uL/well” for “uL/well of”, “BSA (MSD Blocker A)” for “BSA”, “added.” for “added in.”
Add samples: Media was removed from compound-treated cells and replaced with 55 uL/well MSD cell lysis buffer containing protease and phosphotase I & II inhibitors. The preparations was incubate on a shaker in a cold room for 30-45 min. The blocked MSD plate was washed on a plate washer, and the last bit of wash solution was tapped out. Next was added 50 uL (of the 55 uL) cell lysate in a well-well transfer. The preparation was covered and incubated on shaker at room temp for 2 hours. The lysate was then removed and washed on plate washer 3 times. The last bit of wash buffer was then tapped out and replaced with 25 uL/well detection antibody (described below).
For pRSK detection, a pRSK antibody stock of 21 ug/mL was prepared as follows: 1 ug/mL pRSK Ser380 antibody (Cell Signaling Technology, Cat. #9335)+1:750 anti-rabbit SulfoTag (from MSD, R32AB-1) in 1% BSA in MSD wash buffer.
as §4
The plate was incubated for 1 hr at room temperature on a shaker, followed by three washes. The last bit of wash buffer was tapped out. Next, 150 uL/well 1×MSD Read buffer was added and the plate was analyzed by the MSD reader.

[3] = tested on: A375 cells (malignant melanoma); test: Inhibition of cancer cell proliferation, A375 (CellTiterGlo, 72 hours); assay type: cell-based; settings: Homo sapiens, A-375
Protocol: Measurement of Inhibition of Cancer Cell Proliferation (A375/Malignant Melanoma)
The following protocol used an A375 cell line, which cell line is a model for malignant melanoma. A375 cells were split and 3000 cells in […] of growth medium were added per well of a flat-bottom 96-well plate. A two-fold test compound solution in serum-free DMEM was made, starting at 5,000 nM. Then, 3-fold serial dilutions were made across the plate from well 1 to well 11. Well 12, the last well in a row on the plate, was left as untreated control. 100 μl compound solutions were then transferred to the wells, so the total volume of media was 200 μl per well. Plates were returned to a 37° C. incubator, and the cells were cultured for 72 hours. To measure cell proliferation after 72 hours, media was discarded from the plates, 50 μl/well of fresh medium was added, and 50 μl CellTiterGlo solution was added (Promega Cat#G7573). The plate was covered with a dark lid and incubated for 10 min. A white sealing tape was applied to the bottom of the plate, and the plate was read in a luminescence plate reader. […] 50 μl CellTiterGlo was added per well, and the plate was read in a luminescence plate reader after 10 min. The reading was plotted vs. cell number to generate a standard curve and the equation of the curve fit. The compound-treated sample luminescence readings were converted to cell numbers using the curve-fit equation. The percent of inhibition, using untreated control as 100% growth, was then calculated. GI50 was then calculated by GraphPad Prism.

[4] = tested on: HT-29 cells (colorectal adenocarcinoma); test: Inhibition of cancer cell proliferation, HT-29 (CellTiterGlo, 72 hours); assay type: cell-based; settings: Homo sapiens
Procedure, shortened: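 HT-29 cells seeded at 3000/well, then treated with 3-fold serial dilutions from a 5,000 nM two-fold solution in serum-free RPMI1640, untreated wells as control, for 72 h at 37° C. CellTiterGlo luminescence converted to cell number via a standard curve; GI50 from percent inhibition versus untreated growth.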

[5] = tested on: ERK1/2 phosphorylation of p90RSK in HT29 cells; test: pRSK MSD Assay in HT29 cells; assay type: cell-based; settings: Homo sapiens, HT-29, read-out: ERK1/ERK2 PRSK MSD HT29 EC50
Procedure, shortened: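 Serum-starved HT29 cells (0.1% FBS overnight) treated with test compound for 120 min at 37° C, then lysed with protease and phosphatase inhibitors. Phospho-p90RSK quantified by MSD sandwich immunoassay: RSK capture antibody, phospho-RSK detection antibody plus Sulfo-tagged antibody, electrochemiluminescence read.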

SMILES	EC50 [1] [nM]	IC50 (MEK1 activated ERK1; ATP at KM, WT) [nM]	EC50 [2] [nM]	GI50 [3] [nM]	GI50 [4] [nM]	IC50 (MEK1 activated ERK1; MEK1 activated ERK1, ATP at KM, read-out: ERK1 Omnia WT ATP KM IC50) [nM]	EC50 [5] [nM]
C=CC(=O)Nc1cc(C)ccc1Nc1nc(N[C@H]2CCCN(C(=O)CC)C2)ncc1C(F)(F)F [Compound I-41, (S)—N-(5-Methyl-2-((2-((1-propionylpiperidin-3-yl)amino)-5-(trifluoromethyl)pyrimidin-4-yl)amino)phenyl)acrylamide]				< 100	< 100		
C=CC(=O)Nc1ccccc1Nc1nc(NC2CCOCC2)ncc1Cl [Compound I-108, N-(2-((5-chloro-2-((tetrahydro-2H-pyran-4-yl)amino)pyrimidin-4-yl)amino)phenyl)acrylamide]				101 to 500	< 100		
C=CC(=O)Nc1ccccc1Nc1nc(NC2CCC(=O)CC2)ncc1C(F)(F)F [Compound I-23, N-(2-((2-((4-Oxocyclohexyl)amino)-5-(trifluoromethyl)pyrimidin-4-yl)amino)phenyl)acrylamide]				101 to 500	< 100		
C=CC(=O)Nc1cc(C)ccc1Nc1nc(N[C@H]2CCN(S(=O)(=O)C=C)C2)ncc1C(F)(F)F [Compound I-279, (S)—N-(5-Methyl-2-((5-(trifluoromethyl)-2-((1-(vinylsulfonyl)pyrrolidin-3-yl)amino)pyrimidin-4-yl)amino)phenyl)acrylamide]	> 1000		> 1000			501 to 999	
C=CC(=O)Nc1cc(C)ccc1Nc1nc(Nc2cc(OC)nc(N3CCC(O)CC3)c2)ncc1C(F)(F)F [Compound I-332, N-(2-((2-((2-(4-hydroxypiperidin-1-yl)-6-methoxypyridin-4-yl)amino)-5-(trifluoromethyl)pyrimidin-4-yl)amino)-5-methylphenyl)acrylamide]	101 to 500		101 to 500				< 100
C=CC(=O)Nc1cc(C)ccc1Nc1nc(Nc2cc(OC)nc(N3CCC3)c2)ncc1C(F)(F)F [Compound I-329, N-(2-((2-((2-(azetidin-1-yl)-6-methoxypyridin-4-yl)amino)-5-(trifluoromethyl)pyrimidin-4-yl)amino)-5-methylphenyl)acrylamide]	> 1000		101 to 500				101 to 500
C=CC(=O)Nc1cc(OCC(=O)N2CCN(C(C)=O)CC2)ccc1Nc1nc(Nc2cc(OC)ncc2C)ncc1C(F)(F)F [Compound I-404, N-(5-(2-(4-acetylpiperazin-1-yl)-2-oxoethoxy)-2-((2-((2-methoxy-5-methylpyridin-4-yl)amino)-5-(trifluoromethyl)pyrimidin-4-yl)amino)phenyl)acrylamide]	101 to 500		101 to 500				101 to 500

The remaining lines, values ahead:

EC50 [1] [nM]	IC50 (MEK1 activated ERK1; ATP at KM, WT) [nM]	EC50 [2] [nM]	GI50 [3] [nM]	GI50 [4] [nM]	IC50 (MEK1 activated ERK1; MEK1 activated ERK1, ATP at KM, read-out: ERK1 Omnia WT ATP KM IC50) [nM]	EC50 [5] [nM]	SMILES
101 to 500	> 1000	101 to 500					C=CC(=O)Nc1cc(C)ccc1Nc1nc(Nc2cc(OC)ncc2CO)ncc1C(F)(F)F [Compound I-428, N-(2-((2-((5-(hydroxymethyl)-2-methoxypyridin-4-yl)amino)-5-(trifluoromethyl)pyrimidin-4-yl)amino)-5-methylphenyl)acrylamide]
101 to 500	> 1000	501 to 999					C=CC(=O)Nc1cc(C)ccc1Nc1nc(Nc2cc(OC)ncc2CF)ncc1C(F)(F)F [Compound I-429, N-(2-((2-((5-(fluoromethyl)-2-methoxypyridin-4-yl)amino)-5-(trifluoromethyl)pyrimidin-4-yl)amino)-5-methylphenyl)acrylamide]
501 to 999	501 to 999	501 to 999					C=CC(=O)Nc1cc(C)ccc1Nc1nc(Nc2cc(OC)nn2C)ncc1C(F)(F)F [Compound I-430, N-(2-((2-((3-methoxy-1-methyl-1H-pyrazol-5-yl)amino)-5-(trifluoromethyl)pyrimidin-4-yl)amino)-5-methylphenyl)acrylamide]
101 to 500		101 to 500				101 to 500	C=CC(=O)Nc1cc(C)ccc1Nc1nc(Nc2cc(OC)ncc2OC)ncc1C(F)(F)F [Compound I-406, N-(2-((2-((2,5-dimethoxypyridin-4-yl)amino)-5-(trifluoromethyl)pyrimidin-4-yl)amino)-5-methylphenyl)acrylamide]
